In the assay the target is T1, BCL6 (Homo sapiens, UniProt P41182).
T1 construct: endogenous in cells; host or cells: T47D breast cancer epithelial cells
Description: Immunofluorescence protocol for high content imaging of BCL6 (degradation) in T47D cells, 3 days compound treatment. Particulars: T47D cells, 3 days compound treatment; for DC50: read-out: Mean DC50 (nM)* category; for Dmax: read-out: Mean Dmax (%)** category. It counts as cell-based. In outline:
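T47D cells in RPMI1640-10% FBS were treated with an 11-point 3-fold dilution series (final top 0.1 or 1 μM) for 3 days at 37° C. After PFA fixation and Triton permeabilization, cells were immunostained with rabbit anti-BCL6 (1:300, overnight 4° C), Alexa-488 secondary, CellMask-647 and Hoechst, then imaged at 10×, 4 fields/well.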

A word on the DC50: it is the concentration at which degradation of the target reaches its halfway point. In general, Dmax refers to the largest share of the target that was removed.

A value given as a limit tells only on which side of the number the result lay.

In the case of `CC(C)n1c(=O)c(OCC(=O)N(C)C)cc2cc(Nc3nc(N4CCC(CN5CCC6(CC5)CN(c5ccc7c(c5)C(=O)N(C5CCC(=O)NC5=O)C7=O)C6)CC4)ncc3Cl)ccc21` (centres unmarked) [Compound 55, 2-{[6-({5-chloro-2-[4-({2-[2-(2,6-dioxopiperidin-3-yl)-1,3-dioxo-2,3-dihydro-1H-isoindol-5-yl]-2,7-diazaspiro[3.5]nonan-7-yl}methyl)piperidin-1-yl]pyrimidin-4-yl}amino)-2-oxo-1-(propan-2-yl)-1,2-dihydroquinolin-3-yl]oxy}-N,N-dimethylacetamide], the DC50 is no less than 100 nM and the Dmax was no less than 70%.
Take `CCNC(=O)COc1cc2cc(Nc3nc(N4CCC(CN5CCC6(CC5)CN(c5ccc7c(c5)C(=O)N(C5CCC(=O)NC5=O)C7=O)C6)CC4)ncc3Cl)ccc2n(C(C)C)c1=O` (centres unmarked) [Compound 56, 2-{[6-({5-chloro-2-[4-({2-[2-(2,6-dioxopiperidin-3-yl)-1,3-dioxo-2,3-dihydro-1H-isoindol-5-yl]-2,7-diazaspiro[3.5]nonan-7-yl}methyl)piperidin-1-yl]pyrimidin-4-yl}amino)-2-oxo-1-(propan-2-yl)-1,2-dihydroquinolin-3-yl]oxy}-N-ethylacetamide]: the DC50 is no less than 100 nM and the Dmax is no less than 70%.
Consider `CNC(=O)COc1cc2cc(Nc3nc(N4CCC(CN5CCC6(CC5)CN(c5ccc7c(c5)C(=O)N(C5CCC(=O)NC5=O)C7=O)C6)CC4)ncc3F)ccc2n(C(C)C)c1=O` (centres unmarked) [Compound 57, 2-{[6-({2-[4-({2-[2-(2,6-dioxopiperidin-3-yl)-1,3-dioxo-2,3-dihydro-1H-isoindol-5-yl]-2,7-diazaspiro[3.5]nonan-7-yl}methyl)piperidin-1-yl]-5-fluoropyrimidin-4-yl}amino)-2-oxo-1-(propan-2-yl)-1,2-dihydroquinolin-3-yl]oxy}-N-methylacetamide], for which the DC50 lay in the range of 10 to 50 nM and the Dmax fell in the range of 50 to 70%.
For `CNC(=O)COc1cc2cc(Nc3nc(N4CCC(C(C)(C)N5CCC6(CC5)CN(c5ccc7c(c5)CN(C5CCC(=O)NC5=O)C7=O)C6)CC4)ncc3Cl)ccc2n(C(C)C)c1=O` (centres unmarked) [Compound 58, 2-{[6-({5-chloro-2-[4-(2-{2-[2-(2,6-dioxopiperidin-3-yl)-1-oxo-2,3-dihydro-1H-isoindol-5-yl]-2,7-diazaspiro[3.5]nonan-7-yl}propan-2-yl)piperidin-1-yl]pyrimidin-4-yl}amino)-2-oxo-1-(propan-2-yl)-1,2-dihydroquinolin-3-yl]oxy}-N-methylacetamide] the same measures were less than 10 nM and no less than 70%.
Regarding `CNC(=O)COc1cc2cc(Nc3nc(N4CCC(C(C)(C)N5CCC6(CC5)CN(c5cccc7c5CN(C5CCC(=O)NC5=O)C7=O)C6)CC4)ncc3Cl)ccc2n(C(C)C)c1=O` (centres unmarked) [Compound 59, 2-{[6-({5-chloro-2-[4-(2-{2-[2-(2,6-dioxopiperidin-3-yl)-1-oxo-2,3-dihydro-1H-isoindol-4-yl]-2,7-diazaspiro[3.5]nonan-7-yl}propan-2-yl)piperidin-1-yl]pyrimidin-4-yl}amino)-2-oxo-1-(propan-2-yl)-1,2-dihydroquinolin-3-yl]oxy}-N-methylacetamide], the DC50 was less than 10 nM and the Dmax lay in the range of 50 to 70%.
The matching figures for `CNC(=O)COc1cc2cc(Nc3nc(N4CCC(CN5CCC6(CCN(c7ccc8c(c7)CN(C7CCC(=O)NC7=O)C8=O)C6)C5=O)CC4)ncc3Cl)ccc2n(C(C)C)c1=O` (centres unmarked) [Compound 60, 2-{[6-({5-chloro-2-[4-({7-[2-(2,6-dioxopiperidin-3-yl)-1-oxo-2,3-dihydro-1H-isoindol-5-yl]-1-oxo-2,7-diazaspiro[4.4]nonan-2-yl}methyl)piperidin-1-yl]pyrimidin-4-yl}amino)-2-oxo-1-(propan-2-yl)-1,2-dihydroquinolin-3-yl]oxy}-N-methylacetamide]: less than 10 nM and 50 to 70%.
As to `CNC(=O)COc1cc2cc(Nc3nc(N4CCC(OC5CCC6(CC5)CN(c5cccc7c5CN(C5CCC(=O)NC5=O)C7=O)C6)CC4)ncc3Cl)ccc2n(C(C)C)c1=O` (centres unmarked) [Compound 61, 2-{[6-({5-chloro-2-[4-({2-[2-(2,6-dioxopiperidin-3-yl)-1-oxo-2,3-dihydro-1H-isoindol-4-yl]-2-azaspiro[3.5]nonan-7-yl}oxy)piperidin-1-yl]pyrimidin-4-yl}amino)-2-oxo-1-(propan-2-yl)-1,2-dihydroquinolin-3-yl]oxy}-N-methylacetamide], the DC50 was less than 10 nM and the Dmax lay in the range of 50 to 70%.
Regarding `CNC(=O)COc1cc2cc(Nc3nc(N4CCC(F)(CN5CCC6(CC5)CCN(c5cccc7c5C(=O)N(C5CCC(=O)NC5=O)C7=O)CC6)CC4)ncc3Cl)ccc2n(C(C)C)c1=O` (centres unmarked) [Compound 62, 2-{[6-({5-chloro-2-[4-({9-[2-(2,6-dioxopiperidin-3-yl)-1,3-dioxo-2,3-dihydro-1H-isoindol-4-yl]-3,9-diazaspiro[5.5]undecan-3-yl}methyl)-4-fluoropiperidin-1-yl]pyrimidin-4-yl}amino)-2-oxo-1-(propan-2-yl)-1,2-dihydroquinolin-3-yl]oxy}-N-methylacetamide], the DC50 is less than 10 nM and the Dmax was no less than 70%.
The matching figures for `CNC(=O)COc1cc2cc(Nc3nc(N4CCC5(CCN(CC6(F)CCN(c7cccc8c7C(=O)N(C7CCC(=O)NC7=O)C8=O)CC6)CC5)CC4)ncc3Cl)ccc2n(C(C)C)c1=O` (centres unmarked) [Compound 63, 2-{[6-({5-chloro-2-[9-({1-[2-(2,6-dioxopiperidin-3-yl)-1,3-dioxo-2,3-dihydro-1H-isoindol-4-yl]-4-fluoropiperidin-4-yl}methyl)-3,9-diazaspiro[5.5]undecan-3-yl]pyrimidin-4-yl}amino)-2-oxo-1-(propan-2-yl)-1,2-dihydroquinolin-3-yl]oxy}-N-methylacetamide]: 10 to 50 nM and 50 to 70%.
Consider `CNC(=O)COc1cc2cc(Nc3nc(N4CCC(CN5CCC6(CC5)CN(c5cc7c(cc5F)C(=O)N(C5CCC(=O)NC5=O)C7)C6)CC4)ncc3Cl)ccc2n(C(C)C)c1=O` (centres unmarked) [Compound 64, 2-{[6-({5-chloro-2-[4-({2-[2-(2,6-dioxopiperidin-3-yl)-6-fluoro-1-oxo-2,3-dihydro-1H-isoindol-5-yl]-2,7-diazaspiro[3.5]nonan-7-yl}methyl)piperidin-1-yl]pyrimidin-4-yl}amino)-2-oxo-1-(propan-2-yl)-1,2-dihydroquinolin-3-yl]oxy}-N-methylacetamide], for which the DC50 is less than 10 nM and the Dmax lay in the range of 50 to 70%.
For `CNC(=O)COc1cc2cc(Nc3nc(N4CCC(CN5CCC6(CC5)CN(c5ccc7c(c5)C(=O)N(C5CCC(=O)NC5=O)C7=O)C6=O)CC4)ncc3Cl)ccc2n(C(C)C)c1=O` (centres unmarked) [Compound 65, 2-{[6-({5-chloro-2-[4-({2-[2-(2,6-dioxopiperidin-3-yl)-1,3-dioxo-2,3-dihydro-1H-isoindol-5-yl]-1-oxo-2,7-diazaspiro[3.5]nonan-7-yl}methyl)piperidin-1-yl]pyrimidin-4-yl}amino)-2-oxo-1-(propan-2-yl)-1,2-dihydroquinolin-3-yl]oxy}-N-methylacetamide] the same measures were no less than 100 nM and no less than 70%.
For `CNC(=O)COc1cc2cc(Nc3nc(N4CCN(C(=O)C5CCC6(CCN(c7ccc8c(c7)CN(C7CCC(=O)NC7=O)C8=O)C6)C5)CC4)ncc3Cl)ccc2n(C(C)C)c1=O` (centres unmarked) [Compound 66, 2-[(6-{[5-chloro-2-(4-{2-[2-(2,6-dioxopiperidin-3-yl)-1-oxo-2,3-dihydro-1H-isoindol-5-yl]-2-azaspiro[4.4]nonane-7-carbonyl}piperazin-1-yl)pyrimidin-4-yl]amino}-2-oxo-1-(propan-2-yl)-1,2-dihydroquinolin-3-yl)oxy]-N-methylacetamide] the same measures were less than 10 nM and less than 50%.
On to `CNC(=O)COc1cc2cc(Nc3nc(N4CCN(CC5CCN(c6ccc7c(c6)CN(C6CCC(=O)NC6=O)C7=O)CC5)CC4)ncc3Cl)ccc2n(C)c1=O` (centres unmarked) [Compound 67, 2-{[6-({5-chloro-2-[4-({1-[2-(2,6-dioxopiperidin-3-yl)-1-oxo-2,3-dihydro-1H-isoindol-5-yl]piperidin-4-yl}methyl)piperazin-1-yl]pyrimidin-4-yl}amino)-1-methyl-2-oxo-1,2-dihydroquinolin-3-yl]oxy}-N-methylacetamide], for which the DC50 is less than 10 nM and the Dmax lay within 50 to 70%.
The matching figures for `CNC(=O)COc1cc2cc(Nc3nc(N4CCN(C(C)(C)C5CCN(c6cc7c(cc6F)C(=O)N(C6CCC(=O)NC6=O)C7)CC5)CC4)ncc3Cl)ccc2n(C(C)C)c1=O` (centres unmarked) [Compound 68, 2-{[6-({5-chloro-2-[4-(2-{1-[2-(2,6-dioxopiperidin-3-yl)-6-fluoro-1-oxo-2,3-dihydro-1H-isoindol-5-yl]piperidin-4-yl}propan-2-yl)piperazin-1-yl]pyrimidin-4-yl}amino)-2-oxo-1-(propan-2-yl)-1,2-dihydroquinolin-3-yl]oxy}-N-methylacetamide]: less than 10 nM and 50 to 70%.
The matching figures for `CNC(=O)COc1cc2cc(Nc3nc(N4CCC(OC5CCC6(CC5)CN(c5ccc7c(c5)C(=O)N(C5CCC(=O)NC5=O)C7)C6)CC4)ncc3Cl)ccc2n(C(C)C)c1=O` (centres unmarked) [Compound 69, 2-{[6-({5-chloro-2-[4-({2-[2-(2,6-dioxopiperidin-3-yl)-3-oxo-2,3-dihydro-1H-isoindol-5-yl]-2-azaspiro[3.5]nonan-7-yl}oxy)piperidin-1-yl]pyrimidin-4-yl}amino)-2-oxo-1-(propan-2-yl)-1,2-dihydroquinolin-3-yl]oxy}-N-methylacetamide]: less than 10 nM and 50 to 70%.
`CNC(=O)COc1cc2cc(Nc3nc(N4CCC(OC5CCC6(CC5)CN(c5cccc7c5C(=O)N(C5CCC(=O)NC5=O)C7)C6)CC4)ncc3Cl)ccc2n(C(C)C)c1=O` (centres unmarked) [Compound 70, 2-{[6-({5-chloro-2-[4-({2-[2-(2,6-dioxopiperidin-3-yl)-3-oxo-2,3-dihydro-1H-isoindol-4-yl]-2-azaspiro[3.5]nonan-7-yl}oxy)piperidin-1-yl]pyrimidin-4-yl}amino)-2-oxo-1-(propan-2-yl)-1,2-dihydroquinolin-3-yl]oxy}-N-methylacetamide]: the DC50 was in the range of 10 to 50 nM and the Dmax lay in the range of 50 to 70%.

The values above are taken from patent publication US11986532B2 (Arvinas Operations, Inc., priority 2021, dated 2024).
